What all share (type): functional
In test [1] the test system is Candida albicans. Description: Antimicrobial activity against Candida albicans isolate after 24 to 48 hrs after 24 hrs by disk diffusion method. For orientation: A growth-free zone around the sample is the usual read-out of agar diffusion tests.
The subject of test [2] is Candida albicans. Description: Antimicrobial activity against Candida albicans ATCC 10231 after 24 to 48 hrs after 24 hrs by disk diffusion method.
Test [3] has as its system Escherichia coli. Description: Antimicrobial activity against Escherichia coli ATCC 25922 after 24 hrs by disk diffusion method. Particulars: ATCC 25922, 24 h.
The test system of test [4] is Staphylococcus aureus. The test is described as follows: Antimicrobial activity against Staphylococcus aureus ATCC 25923 after 24 hrs by disk diffusion method. Particulars: ATCC 25923, 24 h.
Test [5] deals with Pseudomonas aeruginosa. Description: Antimicrobial activity against Pseudomonas aeruginosa ATCC […] after 24 hrs by disk diffusion method. Particulars: ATCC 25853, 24 h.
Test [6] deals with Klebsiella pneumoniae. The test is described as follows: Antimicrobial activity against Klebsiella pneumoniae after 24 hrs by disk diffusion method.
Test [7] concerns Bacillus subtilis. Description: Antimicrobial activity against Bacillus subtilis isolate after 24 hrs by disk diffusion method.
For test [8], the system named is Staphylococcus aureus. Description: Antimicrobial activity against Staphylococcus aureus isolate after 24 hrs by disk diffusion method.
Test [9] deals with Klebsiella pneumoniae. Description: Antimicrobial activity against Klebsiella pneumoniae RSHM 574 after 24 hrs by disk diffusion method.
The subject of test [10] is Escherichia coli. The test is described as follows: Antimicrobial activity against Escherichia coli isolate after 24 hrs by disk diffusion method.
The test system of test [11] is Bacillus subtilis. The test is described as follows: Antimicrobial activity against Bacillus subtilis ATCC 6633 after 24 hrs by disk diffusion method. Particulars: ATCC 6633, 24 h.

SMILES strings stand for the structures. In brackets after ≈: the same amount, converted by molar mass.

On to `CCS(=O)(=O)c1ccc2oc(-c3ccccc3F)nc2c1`, for which the minimum inhibitory concentration (MIC) in test [1] amounted to 62.5 µg/mL (≈ 205 µM); in test [2], 62.5 µg/mL (≈ 205 µM); in test [3], 62.5 µg/mL (≈ 205 µM); in test [4], 125 µg/mL (≈ 409 µM); in [5], 62.5 µg/mL (≈ 205 µM); in [6], 125 µg/mL (≈ 409 µM). Also, the MIC stood at 31.2 µg/mL (≈ 102 µM) in test [7]; 125 µg/mL (≈ 409 µM) in [8]; 31.2 µg/mL (≈ 102 µM) in [9]; 250 µg/mL (≈ 819 µM) in [10]; 62.5 µg/mL (≈ 205 µM) in [11].
`CCS(=O)(=O)c1ccc2oc(-c3ccccc3Cl)nc2c1`: the minimum inhibitory concentration (MIC) in test [1] was 62.5 µg/mL (≈ 194 µM); in test [2], 31.2 µg/mL (≈ 97.1 µM); in test [3] it was 62.5 µg/mL (≈ 194 µM); in test [4], 125 µg/mL (≈ 388 µM); in [5], 62.5 µg/mL (≈ 194 µM); in test [6], 125 µg/mL (≈ 388 µM). Besides, the minimal inhibitory concentration (MIC) in [7] was determined as 31.2 µg/mL (≈ 97.1 µM); in test [8], 125 µg/mL (≈ 388 µM); in test [9], 31.2 µg/mL (≈ 97.1 µM); in [10], 125 µg/mL (≈ 388 µM); in test [11] it was 15.6 µg/mL (≈ 48.5 µM).
For `CCS(=O)(=O)c1ccc2oc(CCc3ccccc3)nc2c1`, the MIC is 62.5 µg/mL (≈ 198 µM) in test [1]; 62.5 µg/mL (≈ 198 µM) in test [2]; 62.5 µg/mL (≈ 198 µM) in [3]; 125 µg/mL (≈ 396 µM) in test [4]; 62.5 µg/mL (≈ 198 µM) in test [5]; 125 µg/mL (≈ 396 µM) in [6]. Besides, the MIC in test [7] was determined as 31.2 µg/mL (≈ 99.1 µM); in test [8], 125 µg/mL (≈ 396 µM); in [9], 31.2 µg/mL (≈ 99.1 µM); in test [10], 125 µg/mL (≈ 396 µM); in test [11], 62.5 µg/mL (≈ 198 µM).

For orientation: MIC means the lowest concentration that inhibits growth of the organism.

These data come from ChEMBL document CHEMBL1140961, “Synthesis and biological activity of some new benzoxazoles” (2008).
